Laboratory results published in PMC7243119, “Improved Surface Display of Human Hyal1 and Identification of Testosterone Propionate and Chicoric Acid as New Inhibitors” (Pharmaceuticals, 2020).

Experiments:
Hyal1 [1] = target: T1, Hyal1 (Homo sapiens, UniProt Q12794); test: Stains-all HA degradation assay with surface-displayed Hyal1 on E. coli cells, pH […] (incomplete curve; assay impaired beyond […]); type: cell-based
T1 sequence (Q12794 22-435): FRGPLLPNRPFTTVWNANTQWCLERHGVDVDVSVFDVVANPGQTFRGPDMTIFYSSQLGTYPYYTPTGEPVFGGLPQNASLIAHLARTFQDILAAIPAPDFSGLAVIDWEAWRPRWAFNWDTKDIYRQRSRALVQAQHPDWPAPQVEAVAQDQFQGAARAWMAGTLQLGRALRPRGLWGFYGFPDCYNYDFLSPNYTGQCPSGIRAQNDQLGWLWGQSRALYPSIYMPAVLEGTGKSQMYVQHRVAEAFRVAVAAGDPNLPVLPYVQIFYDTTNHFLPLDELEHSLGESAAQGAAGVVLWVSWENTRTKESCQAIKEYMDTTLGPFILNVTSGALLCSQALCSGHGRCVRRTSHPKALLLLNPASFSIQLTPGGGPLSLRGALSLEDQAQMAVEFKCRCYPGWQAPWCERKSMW

Hyal1 [2] = target: T1, Hyal1; test: Stains-all HA degradation assay with surface-displayed Hyal1 on E. coli cells, pH […]; type: cell-based

Row | SMILES | IC50 (Hyal1 [1]) [µM] | IC50 (Hyal1 [2]) [µM]
1 | O=C(/C=C/c1ccc(O)c(O)c1)O[C@@H](C(=O)O)[C@@H](OC(=O)/C=C/c1ccc(O)c(O)c1)C(=O)O [chicoric acid] | 171 | –
2 | CCC(=O)O[C@H]1CC[C@H]2[C@@H]3CCC4=CC(=O)CC[C@]4(C)[C@H]3CC[C@]12C [testosterone propionate] | – | 124 ± 1.1
